What was measured:
[1] = organism: Mus musculus; test: Acute toxicity against Mus musculus Swiss albino (mouse) assessed as mortality after 48 hr; format: organism-based; conditions: in vivo
[2] = system: Mus musculus; test: Anti-inflammatory activity in carrageenan-induced Mus musculus Swiss albino (mouse) paw edema model assessed as inhibition of paw edema at 100 mg/kg, sc administered 30 min prior to carrageenan injection measured after 180 min; format: functional; conditions: route subcutaneous
[3] = system: Mus musculus; test: Anti-inflammatory activity in carrageenan-induced Mus musculus Swiss albino (mouse) paw edema model assessed as inhibition of paw edema at 100 mg/kg, sc administered 30 min prior to carrageenan injection measured after 90 min; format: functional; conditions: route subcutaneous
[4] = system: Mus musculus; test: Anti-inflammatory activity in carrageenan-induced Mus musculus Swiss albino (mouse) paw edema model assessed as paw swelling at 100 mg/kg, sc administered 30 min prior to carrageenan injection measured after 180 min (reference value: 51.0 +/-3.0 x10'-2 mm); format: functional; conditions: route subcutaneous
[5] = system: Mus musculus; test: Anti-inflammatory activity in carrageenan-induced Mus musculus Swiss albino (mouse) paw edema model assessed as paw swelling at 100 mg/kg, sc administered 30 min prior to carrageenan injection measured after 270 min (rvb = 75.0 +/-3.0 x10'-2 mm); format: functional; conditions: route subcutaneous
[6] = system: Mus musculus; test: Anti-inflammatory activity in carrageenan-induced Mus musculus Swiss albino (mouse) paw edema model assessed as paw swelling at 100 mg/kg, sc administered 30 min prior to carrageenan injection measured after 90 min (reference value: 38.0 +/-2.0 x10'-2 mm); format: functional; conditions: route subcutaneous
[7] = system: Mus musculus; test: Anti-inflammatory activity in carrageenan-induced Mus musculus Swiss albino (mouse) paw edema model assessed as inhibition of paw edema at 100 mg/kg, sc administered 30 min prior to carrageenan injection measured after 270 min; format: functional; conditions: route subcutaneous
[8] = system: Mus musculus; test: Analgesic activity in Mus musculus Swiss albino (mouse) assessed as inhibition of p-benzoquinone-induced abdominal writhing at 100 mg/kg, sc administered 30 min prior to PBQ injection measured after 5 min for 15 min; format: functional, Abdomen; parameters: scale not given: the % may be the effect or the level left; conditions: route subcutaneous
[9] = organism: Mus musculus; test: Acute toxicity against Mus musculus Swiss albino (mouse) assessed as morbidity after 48 hr; format: organism-based; conditions: in vivo
[10] = system: Mus musculus; test: Anti-inflammatory activity in carrageenan-induced Mus musculus Swiss albino (mouse) paw edema model assessed as inhibition of paw edema at 100 mg/kg, sc administered 30 min prior to carrageenan injection measured after 360 min; format: functional; conditions: route subcutaneous
[11] = system: Mus musculus; test: Anti-inflammatory activity in carrageenan-induced Mus musculus Swiss albino (mouse) paw edema model assessed as paw swelling at 100 mg/kg, sc administered 30 min prior to carrageenan injection measured after 360 min (reference value: 77.0 +/-3.0 x10'-2 mm); format: functional; conditions: route subcutaneous
[12] = system: MCF7; test: Anticancer activity against Homo sapiens (human) MCF7 cells assessed as cell viability at 50 uM after 48 hr by MTT assay (100 +/-5.08%); format: functional; conditions: MCF7, 48 h, read-out: Activity
[13] = system: MCF7; test: Anticancer activity against Homo sapiens (human) MCF7 cells assessed as cell viability at 50 uM after 24 hr by MTT assay (reference value: 100 +/-2.74%); format: functional; conditions: MCF7, 24 h, read-out: Activity
[14] = system: HeLa; test: Anticancer activity against Homo sapiens (human) HeLa cells assessed as cell viability at 50 uM after 24 hr by MTT assay (reference value: 100 +/-4.13%); format: functional; conditions: read-out: Activity
[15] = system: HeLa; test: Anticancer activity against Homo sapiens (human) HeLa cells assessed as cell viability at 50 uM after 48 hr by MTT assay (reference value: 100 +/-3.8%); format: functional; conditions: read-out: Activity
[16] = system: Raji; test: Anticancer activity against Homo sapiens (human) Raji cells assessed as cell viability at 50 uM after 48 hr by MTT assay (reference value: 100 +/-4.26%); format: functional; conditions: read-out: Activity
[17] = system: HL-60; test: Anticancer activity against Homo sapiens (human) HL60 cells assessed as cell viability at 50 uM after 48 hr by MTT assay (reference value: 100 +/-8.41%); format: functional; conditions: HL-60, 48 h, read-out: Activity
[18] = system: MDA-MB-231; test: Anticancer activity against Homo sapiens (human) estrogen-independent MDA-MB-231 cells assessed as cell viability at 50 uM after 48 hr by MTT assay (reference value: 100 +/-3.71%); format: functional; conditions: MDA-MB-231, 48 h, read-out: Activity
[19] = system: Raji; test: Anticancer activity against Homo sapiens (human) Raji cells assessed as cell viability at 50 uM after 24 hr by MTT assay (reference value: 100 +/-5.02%); format: functional; conditions: read-out: Activity
[20] = system: MDA-MB-231; test: Anticancer activity against Homo sapiens (human) estrogen-independent MDA-MB-231 cells assessed as cell viability at 50 uM after 24 hr by MTT assay (reference value: 100 +/-7.08%); format: functional; conditions: MDA-MB-231, 24 h, read-out: Activity
[21] = system: HL-60; test: Anticancer activity against Homo sapiens (human) HL60 cells assessed as cell viability at 50 uM after 24 hr by MTT assay (reference value: 100 +/-3.55%); format: functional; conditions: HL-60, 24 h, read-out: Activity

Structure (SMILES)	Activity [1]	inhibition in vivo at 100 mg/kg [2]	Activity [4]	Activity [5]	Activity [6]	inhibition in vivo at 100 mg/kg [7]	Activity [8]	Activity [9]	inhibition in vivo at 100 mg/kg [10]	Activity [11]	viability at 50 µM [12]	viability at 50 µM [13]	viability at 50 µM [14]	viability at 50 µM [15]	viability at 50 µM [16]	viability at 50 µM [17]	viability at 50 µM [18]	viability at 50 µM [19]	viability at 50 µM [20]	viability at 50 µM [21]	other results
COc1ccc(CN2CCN(C(=O)c3cc(-c4ccc(C)cc4)nn3Cc3ccccc3)CC2)c(OC)c1OC	Non-toxic	44.7%	28 ×10⁻² mm	19 ×10⁻² mm	31 ×10⁻² mm	74.4%	53%	Non-toxic	53.3%	36 ×10⁻² mm	–	–	–	–	–	–	–	–	–	–	inhibition in vivo at 100 mg/kg [3]: 17.8%
Cc1ccc(-c2cc(C(=O)NCc3cccnc3)n(Cc3ccccc3)n2)cc1	Non-toxic	16.5%	43 ×10⁻² mm	57 ×10⁻² mm	36 ×10⁻² mm	24.4%	–	Non-toxic	25.3%	57 ×10⁻² mm	100%	105%	74.9%	82.6%	93.4%	41.9%	43.1%	86.4%	65.1%	31.7%	inhibition in vivo at 100 mg/kg [3]: 3.7%
Cc1ccc(-c2cc(C(=O)NNc3ccc4ccccc4n3)n(Cc3ccccc3)n2)cc1	Non-toxic	24.1%	39 ×10⁻² mm	42 ×10⁻² mm	29 ×10⁻² mm	44.4%	48.9%	Non-toxic	42.8%	44 ×10⁻² mm	–	–	–	–	–	–	–	–	–	–	inhibition in vivo at 100 mg/kg [3]: 23%
Cc1ccc(-c2cc(C(=O)Oc3ccc(C(C)(C)C)cc3)n(Cc3ccccc3)n2)cc1	Non-toxic	35%	33 ×10⁻² mm	38 ×10⁻² mm	40 ×10⁻² mm	50%	10.9%	Non-toxic	62%	29 ×10⁻² mm	94.9%	93.2%	83.2%	81.4%	103%	112%	62.9%	94.9%	119%	120%	–
Cc1ccc(-c2cc(C(=O)Oc3ccc(C(C)C)cc3)n(Cc3ccccc3)n2)cc1	Non-toxic	24%	39 ×10⁻² mm	53 ×10⁻² mm	38.3 ×10⁻² mm	29%	33%	Non-toxic	31.5%	53 ×10⁻² mm	90.5%	80.3%	87.2%	69.7%	94.2%	126%	50.2%	105%	71.9%	115%	–
CCCCCCCOc1ccc(OC(=O)c2cc(-c3ccc(C)cc3)nn2Cc2ccccc2)cc1	Non-toxic	9%	47 ×10⁻² mm	68 ×10⁻² mm	42.5 ×10⁻² mm	10%	–	Non-toxic	–	80 ×10⁻² mm	97.6%	100%	109%	85.3%	84.3%	108%	63.2%	76.3%	115%	118%	–
Cc1ccc(-c2cc(C(=O)Oc3ccc(Oc4ccc(C(F)(F)F)cc4)cc3)n(Cc3ccccc3)n2)cc1	Non-toxic	17%	43 ×10⁻² mm	58 ×10⁻² mm	40 ×10⁻² mm	22.2%	56.9%	Non-toxic	14.1%	66 ×10⁻² mm	107%	63.6%	89.1%	77.4%	121%	86.3%	50.3%	111%	75.5%	114%	–
CCOC(=O)C1CCN(C(=O)c2cc(-c3ccc(C)cc3)n(Cc3ccccc3)n2)CC1	Non-toxic	13.9%	44 ×10⁻² mm	32 ×10⁻² mm	40 ×10⁻² mm	57.8%	83.2%	Non-toxic	59.8%	31 ×10⁻² mm	94.5%	77.8%	66.4%	47.1%	41.6%	78.8%	71.8%	56.5%	121%	88.2%	–
Cc1ccc(-c2cc(C(=O)Oc3ccc(C(C)C)cc3)nn2Cc2ccccc2)cc1	Non-toxic	18.7%	42 ×10⁻² mm	37 ×10⁻² mm	27 ×10⁻² mm	50.4%	45.7%	Non-toxic	47.8%	40 ×10⁻² mm	82.6%	79.6%	79.6%	54.6%	97%	83.6%	66.2%	90.1%	106%	120%	inhibition in vivo at 100 mg/kg [3]: 27.4%
Cc1ccc(-c2cc(C(=O)N3CCN(Cc4ccc(C(C)C)cc4)CC3)n(Cc3ccccc3)n2)cc1	Non-toxic	4.1%	49 ×10⁻² mm	55 ×10⁻² mm	44.2 ×10⁻² mm	26.7%	–	Non-toxic	30.4%	53 ×10⁻² mm	66.6%	94.4%	84.8%	60.6%	109%	104%	51%	101%	74%	128%	–
CC(=O)Oc1ccccc1C(=O)O [ASPIRIN]	–	–	–	–	–	–	68.9%	–	–	–	–	–	–	–	–	–	–	–	–	–	–
